ChEMBL document CHEMBL1149805, “Antibacterial activity of a novel series of 3-bromo-4-(1H-3-indolyl)-2,5-dihydro-1H-2,5-pyrroledione derivatives--an extended structure-activity relationship study” (Eur J Med Chem, 2008)
≈ marks a conversion by molar mass, not a printed value. Calls of active or inactive are those of the source. The rule behind the calls is not given here.

Key:
Candida albicans = assay: Antibacterial activity against Candida albicans after 24 hrs by broth microdilution method; format: functional, organism-based
Escherichia coli = assay: Antibacterial activity against Escherichia coli after 24 hrs by broth microdilution method; format: functional, organism-based
[1] = system: Mycolicibacterium smegmatis; assay: Antibacterial activity against Mycobacterium smegmatis SG987 after 24 hrs by broth microdilution method; format: functional; details: for MIC: Mycolicibacterium smegmatis, SG987, 24 h
Staphylococcus aureus = assay: Antibacterial activity against Staphylococcus aureus 134/93 after 24 hrs by broth microdilution method; format: functional; details: for MIC: Staphylococcus aureus, 134/93, 24 h
[2] = Partition coefficient, log P of the compound; format: physicochemical; details: octanol/water

MIC [1] [µM]	MIC (Staphylococcus aureus) [µM]	logP [2]	Structure (SMILES)	Activity (Candida albicans)	Activity (Escherichia coli)	-logMIC [1]	-logMIC (Staphylococcus aureus)
14.2 (≈ 6.24 µg/mL)	0.5 (≈ 0.22 µg/mL)	3.58	CCCc1cccc2c(C3=C(Br)C(=O)NC3=O)c(-c3ccc(OC)cc3)[nH]c12	inactive	inactive	4.8	6.3
32.6 (≈ 12.4 µg/mL)	3.98 (≈ 1.52 µg/mL)	3.19	Cc1cccc2c(C3=C(Br)C(=O)NC3=O)c(-c3ccccc3)[nH]c12	inactive	inactive	4.5	5.4
26 (≈ 12.5 µg/mL)	0.1 (≈ 0.048 µg/mL)	2.68	O=C(CCCCCc1[nH]c2ccccc2c1C1=C(Br)C(=O)NC1=O)Nc1ccccc1	inactive	inactive	4.6	7
21 (≈ 9.2 µg/mL)	0.18 (≈ 0.0789 µg/mL)	2.42	O=C(CCc1[nH]c2ccccc2c1C1=C(Br)C(=O)NC1=O)Nc1ccccc1	inactive	inactive	4.7	6.7
6.31 (≈ 2.96 µg/mL)	3.3 (≈ 1.55 µg/mL)	3.46	CCCCOc1ccc2[nH]c(-c3cccc(OC)c3)c(C3=C(Br)C(=O)NC3=O)c2c1	inactive	inactive	5.2	5.5
3.16 (≈ 1.43 µg/mL)	3.4 (≈ 1.54 µg/mL)	3.81	CCCCc1ccc2[nH]c(-c3cccc(OC)c3)c(C3=C(Br)C(=O)NC3=O)c2c1	inactive	inactive	5.5	5.5
4.1 (≈ 1.56 µg/mL)	0.13 (≈ 0.0496 µg/mL)	2.88	Cc1ccc2[nH]c(-c3ccccc3)c(C3=C(Br)C(=O)NC3=O)c2c1	inactive	inactive	5.4	6.9
100 (≈ 49.5 µg/mL)	50 (≈ 24.8 µg/mL)	5.21	CCCCCCCCOc1ccc(-c2[nH]c3ccccc3c2C2=C(Br)C(=O)NC2=O)cc1	inactive	inactive	4	4.3
3.67 (≈ 1.56 µg/mL)	0.23 (≈ 0.0978 µg/mL)	3.23	CCc1ccc2[nH]c(-c3ccc(OC)cc3)c(C3=C(Br)C(=O)NC3=O)c2c1	inactive	inactive	5.4	6.6
30.4 (≈ 12.5 µg/mL)	2 (≈ 0.823 µg/mL)	3.12	COc1ccc(-c2[nH]c3c(C)cccc3c2C2=C(Br)C(=O)NC2=O)cc1	inactive	inactive	4.5	5.7
15.8 (≈ 6.3 µg/mL)	0.32 (≈ 0.127 µg/mL)	2.42	COc1ccc(-c2[nH]c3ccccc3c2C2=C(Br)C(=O)NC2=O)cc1	inactive	inactive	4.8	6.5
6.31 (≈ 3.14 µg/mL)	12.6 (≈ 6.27 µg/mL)	3.92	CCCCCCOc1ccc2[nH]c(-c3cccc(OC)c3)c(C3=C(Br)C(=O)NC3=O)c2c1	inactive	inactive	5.2	4.9
6.31 (≈ 3.04 µg/mL)	26 (≈ 12.5 µg/mL)	4.26	CCCCCCc1ccc2[nH]c(-c3cccc(OC)c3)c(C3=C(Br)C(=O)NC3=O)c2c1	inactive	inactive	5.2	4.6
4 (≈ 1.58 µg/mL)	0.13 (≈ 0.0514 µg/mL)	3.15	CCc1ccc2[nH]c(-c3ccccc3)c(C3=C(Br)C(=O)NC3=O)c2c1	inactive	inactive	5.4	6.9
25.1 (≈ 11.9 µg/mL)	0.21 (≈ 0.0994 µg/mL)	3.3	O=C1NC(=O)C(c2c(-c3ccc(OCc4ccccc4)cc3)[nH]c3ccccc23)=C1Br	inactive	inactive	4.6	6.7
30.4 (≈ 12.5 µg/mL)	3.8 (≈ 1.56 µg/mL)	2.77	CCOc1ccc2[nH]c(-c3ccccc3)c(C3=C(Br)C(=O)NC3=O)c2c1	inactive	inactive	4.5	5.4
3.6 (≈ 1.57 µg/mL)	0.91 (≈ 0.398 µg/mL)	4.07	CCCCCc1ccc2[nH]c(-c3ccccc3)c(C3=C(Br)C(=O)NC3=O)c2c1	inactive	inactive	5.5	6
